The target in experiment [1] is T1, GST tagged LXRalpha LBD (ligand binding domain) (Homo sapiens, UniProt Q13133).
T1 construct: purchased Invitrogen pv4655
T1 sequence (Q13133 209-447 limits assumed): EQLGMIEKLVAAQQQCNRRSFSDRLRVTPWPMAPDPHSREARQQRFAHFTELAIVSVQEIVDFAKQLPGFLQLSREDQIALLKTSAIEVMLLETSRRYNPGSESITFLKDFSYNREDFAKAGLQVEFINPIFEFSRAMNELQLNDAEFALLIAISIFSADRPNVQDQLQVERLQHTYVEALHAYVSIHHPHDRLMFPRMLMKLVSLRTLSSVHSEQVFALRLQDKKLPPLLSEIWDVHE
Put plainly: LanthaScreen TR-FRET Liver X Receptor Coactivator Assay, LXR alpha-LBD. In kind it is biochemical. The following applies: relative to reference T0901317; for EC50 / LXR alpha IP (nM): Inflection Point (potency), co-activator recruitment; for EC50: read-out: LXR alpha IP; for Emax / LXR alpha act @ max dose (%): activity at max dose (efficacy); for Emax: read-out: LXR alpha act @ max dose (%). In a few lines:
(§1)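 Cmpd + LBD → add fluorescein coactivator peptide/Tb-anti-GST Ab mix → incubate RT → TR-FRET readout. IP and Emax referenced to T0901317 (dual LXR agonist).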

In experiment [2] the target is T2, GST tagged LXRbeta LBD (ligand binding domain) (Homo sapiens, UniProt P55055).
T2 construct: purchased Invitrogen pv4658.pps
T2 sequence (P55055 222-460 limits assumed): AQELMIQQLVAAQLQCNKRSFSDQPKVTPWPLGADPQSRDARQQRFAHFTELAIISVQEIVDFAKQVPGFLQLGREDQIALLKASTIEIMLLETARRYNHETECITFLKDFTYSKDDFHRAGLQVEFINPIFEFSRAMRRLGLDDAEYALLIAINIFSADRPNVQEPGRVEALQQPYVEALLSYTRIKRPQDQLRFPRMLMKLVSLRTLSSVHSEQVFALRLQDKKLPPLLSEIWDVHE
Put plainly: LanthaScreen TR-FRET Liver X Receptor Coactivator Assay, LXR beta-LBD. Format: biochemical. Conditions: relative to reference T0901317; for EC50: Inflection Point (potency), co-activator recruitment, read-out: LXR beta IP; for Emax / LXR beta act @ max dose (%): activity at max dose (efficacy); for Emax: read-out: LXR beta act @ max dose (%). In short, it runs like this:
as §1
In general terms: Time-resolved FRET reads energy transfer from a long-lived donor to a nearby acceptor.

From patent US20180305332A1, “Bispiperidinyl Derivatives as Liver X Receptor Beta Agonists, Compositions, and Their Use” (Merck Sharp & Dohme Corp., priority 2015, published 2018) come the findings set out here.

For `CN(C)C(=O)c1ccc(N2CCC(C3CCN(C(=O)C4(c5ccccc5F)CC4)CC3)CC2)cc1Cl` [Example A-71, 2-chloro-4-(1′-{[1-(2-fluorophenyl)cyclopropyl]carbonyl}-4,4′-bipiperidin-1-yl)-N,N-dimethylbenzamide], in experiment [1], the EC50 was determined as 1640 nM and the Emax was determined as 62%. In experiment [2], the EC50 is 64 nM and the Emax stood at 127%.
Take `Cc1ccc(C2(C(=O)N3CCC(C4CCN(c5ccc(C(=O)N(C)C)c(Cl)c5)CC4)CC3)CCC2)cc1` [Example A-72, 2-chloro-N,N-dimethyl-4-(1′-{[1-(4-methylphenyl)cyclobutyl]carbonyl}-4,4′-bipiperidin-1-yl)benzamide]: in experiment [1], the EC50 amounted to 1260 nM and the Emax was 30%. For the same molecule, in experiment [2], the EC50 turned out to be 112 nM and the Emax was 96%.
As to `CN(C)C(=O)c1ccc(N2CCC(C3CCN(C(=O)C4(c5ccccc5F)CCC4)CC3)CC2)cc1Cl` [Example A-73, 2-chloro-4-(1′-{[1-(2-fluorophenyl)cyclobutyl]carbonyl}-4,4′-bipiperidin-1-yl)-N,N-dimethylbenzamide], in experiment [1], the EC50 was found to be 1020 nM and the Emax is 61%. In addition, in experiment [2], the EC50 turned out to be 30 nM and the Emax is 113%.
`CN(C)C(=O)c1ccc(N2CCC(C3CCN(C(=O)C4(c5ccc(Cl)c(Cl)c5)CCC4)CC3)CC2)cc1Cl` [Example A-74, 2-chloro-4-(1′-{[1-(3,4-dichlorophenyl)cyclobutyl]carbonyl}-4,4′-bipiperidin-1-yl)-N,N-dimethylbenzamide]: in experiment [1], the “LXR alpha IP (nM)” value is “NO IP” and the Emax amounted to 0%. In experiment [2], the EC50 stood at 413 nM and the Emax turned out to be 57%.
For `Cc1ccccc1C1(C(=O)N2CCC(C3CCN(c4ccc(C(=O)N(C)C)c(Cl)c4)CC3)CC2)CCC1` [Example A-75, 2-chloro-N,N-dimethyl-4-(1′-{[1-(2-methylphenyl)cyclobutyl]carbonyl}-4,4′-bipiperidin-1-yl)benzamide], the EC50 was found to be 446 nM in experiment [1] and 18 nM in experiment [2]. The Emax was 65% in experiment [1] and 118% in experiment [2].
Regarding `CN(C)C(=O)c1ccc(N2CCC(C3CCN(C(=O)C4(c5cc(F)ccc5F)CCC4)CC3)CC2)cc1Cl` [Example A-76, 2-chloro-4-(1′-{[1-(2,5-difluorophenyl)cyclobutyl]carbonyl}-4,4′-bipiperidin-1-yl)-N,N-dimethylbenzamide], in experiment [1], the EC50 came out at 2000 nM and the Emax turned out to be 31%. Moreover, in experiment [2], the EC50 came out at 374 nM and the Emax stood at 87%.
Regarding `CN(C)C(=O)c1ccc(N2CCC(C3CCN(C(=O)C4(c5ccc(Cl)cc5Cl)CCC4)CC3)CC2)cc1Cl` [Example A-77, 2-chloro-4-(1′-{[1-(2,4-dichlorophenyl)cyclobutyl]carbonyl}-4,4′-bipiperidin-1-yl)-N,N-dimethylbenzamide], in experiment [1], the EC50 amounted to 618 nM and the Emax is 31%. In experiment [2], the EC50 was 52 nM and the Emax was determined as 86%.
Take `COc1cccc(C2(C(=O)N3CCC(C4CCN(c5ccc(C(=O)N(C)C)c(Cl)c5)CC4)CC3)CCCC2)c1` [Example A-78, 2-chloro-4-(1′-{[1-(3-methoxyphenyl)cyclopentyl]carbonyl}-4,4′-bipiperidin-1-yl)-N,N-dimethylbenzamide]: in experiment [1], the “LXR alpha IP (nM)” value is reported as “NO IP” and the Emax is 15%. Besides, in experiment [2], the EC50 came to 210 nM and the Emax was determined as 81%.
For the molecule `CN(C)C(=O)c1ccc(N2CCC(C3CCN(C(=O)C4(c5cc(F)cc(F)c5)CCCC4)CC3)CC2)cc1Cl` [Example A-79, 2-chloro-4-(1′-{[1-(3,5-difluorophenyl)cyclopentyl]carbonyl}-4,4′-bipiperidin-1-yl)-N,N-dimethylbenzamide], the EC50 in experiment [1] stood at 2540 nM; in experiment [2], 216 nM. Further, the Emax in experiment [1] is 35%; in experiment [2], 125%.
For `CN(C)C(=O)c1ccc(N2CCC(C3CCN(C(=O)C(C)(C)c4ccccc4F)CC3)CC2)cc1Cl` [Example A-80, 2-chloro-4-{1′-[2-(2-fluorophenyl)-2-methylpropanoyl]-4,4′-bipiperidin-1-yl}-N,N-dimethylbenzamide] the same measures were 1170 nM, 31 nM, 67% and 116%.
For `COc1cccc(C(O)(C(=O)N2CCC(C3CCN(c4ccc(C(=O)N(C)C)c(Cl)c4)CC3)CC2)C(F)(F)C(F)(F)F)c1` (stereo not shown) [Example A-81, 2-chloro-N,N-dimethyl-4-{1′-[3,3,4,4,4-pentafluoro-2-hydroxy-2-(3-methoxyphenyl)butanoyl]-4,4′-bipiperidin-1-yl}benzamide] the same measures were 3670 nM, 283 nM, 25% and 104%.
With `CN(C)C(=O)c1ccc(N2CCC(C3CCN(C(=O)C4(c5c(F)cccc5Cl)CCCC4)CC3)CC2)cc1Cl` [Example A-82, 2-chloro-4-(1′-{[1-(2-chloro-6-fluorophenyl)cyclopentyl]carbonyl}-4,4′-bipiperidin-1-yl)-N,N-dimethylbenzamide], in experiment [1], the EC50 came to 148 nM and the Emax worked out at 58%. Besides, in experiment [2], the EC50 stood at 7 nM and the Emax was determined as 107%.
On to `CN(C)C(=O)c1ccc(N2CCC(C3CCN(C(=O)C(C)(C)c4ccccc4Cl)CC3)CC2)cc1Cl` [Example A-83, 2-chloro-4-{1′-[2-(2-chlorophenyl)-2-methylpropanoyl]-4,4′-bipiperidin-1-yl}-N,N-dimethylbenzamide], for which, in experiment [1], the EC50 came to 594 nM and the Emax is 74%. For the same molecule, in experiment [2], the EC50 is 15 nM and the Emax turned out to be 115%.
With `CCCC(O)(C(=O)N1CCC(C2CCN(c3ccc(C(=O)N(C)C)c(Cl)c3)CC2)CC1)C(F)(F)F` (stereo not shown) [Example A-84, 2-chloro-4-{1′-[2-hydroxy-2-(trifluoromethyl)pentanoyl]-4,4′-bipiperidin-1-yl}-N,N-dimethylbenzamide], in experiment [1], the EC50 was determined as 1370 nM and the “LXR alpha act @ max dose (%)” value was 63%. Moreover, in experiment [2], the EC50 was 173 nM and the “LXR beta act @ max dose (%)” value amounted to 116%.
In the case of `COc1cccc(C(O)(C(=O)N2CCC(C3CCN(c4ccc(C(=O)N(C)C)c(Cl)c4)CC3)CC2)C(F)(F)C(F)(F)F)c1` (stereo not shown) [Example A-85, 2-chloro-N,N-dimethyl-4-{1′-[3,3,4,4,4-pentafluoro-2-hydroxy-2-(3-methoxyphenyl)butanoyl]-4,4′-bipiperidin-1-yl}benzamide], in experiment [1], the EC50 was 1120 nM and the “LXR alpha act @ max dose (%)” value is 41%. Besides, in experiment [2], the EC50 is 180 nM and the “LXR beta act @ max dose (%)” value stood at 115%.
As to `CN(C)C(=O)c1ccc(N2CCC(C3CCN(C(=O)C4(c5ccccc5Cl)CC4)CC3)CC2)cc1Cl` [Example A-86, 2-chloro-4-(1′-{[1-(2-chlorophenyl)cyclopropyl]carbonyl}-4,4′-bipiperidin-1-yl)-N,N-dimethylbenzamide], the EC50 came out at 671 nM in experiment [1] and 16 nM in experiment [2]. For the same molecule, the Emax in experiment [1] was 73%; in experiment [2] it was 112%.
For `COc1ccccc1C1(C(=O)N2CCC(C3CCN(c4ccc(C(=O)N(C)C)c(Cl)c4)CC3)CC2)CCC1` [Example A-87, 2-chloro-4-(1′-{[1-(2-methoxyphenyl)cyclobutyl]carbonyl}-4,4′-bipiperidin-1-yl)-N,N-dimethylbenzamide] the same measures were 499 nM, 11 nM, 58% and 110%.
For `COc1ccccc1C(C)(C)C(=O)N1CCC(C2CCN(c3ccc(C(=O)N(C)C)c(Cl)c3)CC2)CC1` [Example A-88, 2-chloro-4-{1′-[2-(2-methoxyphenyl)-2-methylpropanoyl]-4,4′-bipiperidin-1-yl}-N,N-dimethylbenzamide] the same measures were 1080 nM, 74 nM, 37% and 101%.
Take `CC(C)CC(O)(C(=O)N1CCC(C2CCN(c3ccc(C(=O)N(C)C)c(Cl)c3)CC2)CC1)C(F)(F)F` (stereo not shown) [Example A-89, 2-chloro-4-{1′-[2-hydroxy-4-methyl-2-(trifluoromethyl)pentanoyl]-4,4′-bipiperidin-1-yl}-N,N-dimethylbenzamide]: in experiment [1], the EC50 turned out to be 1220 nM and the “LXR alpha act @ max dose (%)” value is 36%. In experiment [2], the EC50 amounted to 102 nM and the “LXR beta act @ max dose (%)” value turned out to be 94%.
